Assay results as given in patent US12678414B2, “Compositions for treatment of fungal nail infections” (Blueberry Therapeutics Limited, priority 2016, dated 2026).
Entries after “also recorded” stand apart in the source; their conditions may differ. Counter-ions that a name gives are not always drawn. Like-named read-outs stand apart in the source and are kept apart here.

Tests used:
T. mentagrophytes = assay: Trychophyton mentagrophytes anti-fungal paper disc lawn assay; assay type: cell-based
Description: A single colony of T. mentagrophytes was picked from a stock plate and grown for 48 hours in 5 mls of YEPD (yeast extract, peptone, dextrose) medium at 30° C. A sterile swab was dipped into the resulting culture and then used to spread a lawn of T. mentagrophytes onto a YEPD agar plate supplemented with chloramphenicol (50 ug/ml). […] A 10 mm sterile paper disc was soaked in test solution, the excess liquid removed and the disc placed onto the T. mentagrophytes lawn. Plates were inverted and incubated at 30° C. for 5 days. The first experiment performed was to establish the approximate MIC (minimum inhibitor concentration) for terbinafine against T. mentagrophytes in a paper disc assay. […] After 5 days of incubation, zones of clearance were observed around the discs with concentrations of terbinafine having anti-fungal activity against this species (as shown in FIG. 10). […] The reported figures were certainly derived from a liquid MIC assay, which is known to be more sensitive, and so this paper disc assay represented a substantially more stringent test of drug efficacy. This assay was also used to address the question of whether terbinafine passing through the nail in BB0305 treated samples still retained its antifungal efficacy.

[1] = Nanoparticle analysis on Nanosight LM10; assay type: physicochemical
Description: Nanoparticle formation was routinely confirmed on a Nanosight LM10 instrument (Malvern Instruments). Additional nanoparticle analyses were carried out using a Zetasizer (Malvern Instruments). […] Initial analysis used a Nanosight LM10 nanosizer (Malvern Instruments) to detect nanoparticles in solution. […] The LM10 uses direct visualisation of the particles through a microscope where particles are tracked by a video camera and their sizes calculated using the Einstein-Stokes equation, which relates particle velocity in a solution to their diameter. This video capture also allows for a qualitative assessment of different formulations during their analysis. However, this instrument has a lower cut-off range of approximately 20 nm diameter for analysis.

[2] = assay type: in vitro ADME; settings: human, 7 days
Description: Nail clippings were soaked in water overnight at 30° C. and dried briefly. A 3 mm diameter punch was used to take disc biopsies of the nail clippings. Each nail disc was added to a Franz cell and an upper chamber of the cell attached. 40 μl of the following formulations was added to the upper chambers: 0.3 mg/ml PHMB+0.1 mg/ml terbinafine; or 10 mg/ml terbinafine. Lower collection chambers of the Franz cells were filled with water (approximately 600 μl) and the hole in the base of the sample chamber also filled with ddH2O to prevent bubbles forming beneath the nail. The upper sample chamber was carefully placed into the collection chamber ensuring not to introduce any air bubbles. Excess liquid from the collection chamber was expelled at this point leaving a final volume of liquid in the lower chamber of 500 μl. […]
The nail discs from the Franz cell were also analysed for the presence of terbinafine as follows: the remaining test sample was removed from the upper sample chamber and discarded and the sample chamber washed 5 times with 100 μl ddH2O, with each wash being discarded, in order to remove any residual test solution remaining in the sample chamber. […]
The cells were then incubated at 32° C. for 7 days. […] After 7 days, samples from the underside of the nail (ethanol washes) were collected and analysed by LC-MS/MS. […] Levels of terbinafine were quantified against drug standards. […]

Epidermophyton floccosum = settings: 42 strains tested; cited from earlier work
Microsporum species = settings: 25 strains tested; cited from earlier work
Microsporum canis = settings: 49 strains tested; cited from earlier work
Trichophyton species = settings: 27 strains tested; cited from earlier work
Trichophyton rubrum = settings: 72 strains tested; cited from earlier work
Trichophyton verrucosum = settings: 17 strains tested; cited from earlier work
[3] = system: Trichophyton mentagrophytes; settings: cited from earlier work
[4] = system: Trichophyton interdigitale; settings: 11 strains tested; cited from earlier work
Trichophyton terestre = settings: 1 strain tested; cited from earlier work
[5] = oral dosing, cited from earlier work
onychomycosis [6] = settings: oral, following 3-6 months of dosing; cited from earlier work
onychomycosis [7] = settings: topical terbinafine; hydrochloride; cited from earlier work

For `CN(C/C=C/C#CC(C)(C)C)Cc1cccc2ccccc12` [terbinafine, terbinafine hydrochloride], the “paper disc MIC relative to previously reported MIC” value (T. mentagrophytes; 0.6 μg/ml versus 6 ng/ml) was greater than 100 ×, the MIC (T. mentagrophytes; Trichophyton mentagrophytes, 120 h, paper disc assay, 5 days incubation, approximate, read-out: MIC (minimum inhibitor concentration)) was 0.6 µg/mL and the “antifungal activity (zone of clearance) of sample that passed through nail” value (T. mentagrophytes; aqueous phase of Franz cell collection chamber after 7 days treatment of healthy human nail, 30° C., 5 days) was “no effect”. The “number of particles/ml of solution” value ([1]; 0.1 mg/ml terbinafine in 30% (v/v) ethanol) was less than 5e+07 mL⁻¹, the “particle size range (diameter)” value ([1]; 0.1 mg/ml terbinafine, 30% ethanol) was 50-800 nm and the particle number ([1]; 30% ethanol, room temperature at least 24 hours, 0.1 mg/ml terbinafine) was 0.5×10^8 particles/ml. The “median concentration of drug in dissolved nails” value [2] was “approximately 0.5 mg/g”, the “terbinafine passing through the nail (ethanol washes of underside)” value ([2]; 0.1 mg/ml) was less than 0.1 ng/mL and the MIC range (Epidermophyton floccosum) was 1 to 47 ng/mL. The MIC range (Microsporum species) was 2 to 70 ng/mL, the MIC range (Microsporum canis) was 6 to 80 ng/mL and the MIC range (Trichophyton species) was no more than 0.06 µg/mL. The MIC range (Trichophyton rubrum) was 1 to 38 ng/mL, the MIC range (Trichophyton verrucosum) was 1 to 6 ng/mL and the MIC range ([3]; 32 strains tested) was 1 to 6 ng/mL. The “previously reported MIC” value ([3]; liquid MIC assay, with reference to Table 1) was 6 ng/mL, the MIC range [4] was 2 to 28 ng/mL and the MIC range (Trichophyton terestre) was 2 ng/mL. The “terbinafine concentration in nails” value ([5]; after 3 weeks) was “about 0.25 μg/g”, the “terbinafine concentration in nails” value ([5]; after 18 months) was 0.55 µg/g and the “terbinafine concentration in nails” value ([5]; after 7 days treatment) was 0.1 µg/g. For the same compound, the cure (onychomycosis [6]) was greater than 80% and the “efficacy in the treatment of onychomycosis” value (onychomycosis [7]) was “failed to show efficacy; also recorded: failed to demonstrate any significant efficacy”.
